Measured values: patent publication US20250171451A1, “NOVEL HETEROCYCLIC COMPOUND AND PHARMACEUTICAL COMPOSITION COMPRISING SAME” (Samjin Pharmaceutical Co., Ltd., priority 2022, published 2025)

How the values were obtained:
[1] = tested on: TEAD response element (TRE) luciferase reporter in MCF-7 cell lines; assay: TEAD response element (TRE) reporter assay; assay type: cell-based; conditions: Homo sapiens, MCF7; 0.2 μM compound, 24 hours, MCF-7 TEAD reporter cells, relative to vehicle (1% DMSO)
Experimental: MCF-7 cell lines injected with TEAD reporter genes expressing firefly luciferase upon activation of TEAD response element (TRE) were obtained from BPS bioscience (#60618). The TEAD reporter genes were injected to stable expression in the MCF-7 cell lines.
TEAD reporter genes expressing firefly luciferase upon activation of TEAD response element (TRE) were injected with TEAD reporter genes to ensure stable expression of the TEAD reporter genes. Here, the TEAD reporter genes expresses firefly luciferase upon activation of TEAD response element (TRE). The cells were cultured in a cell-only culture medium (BPS bioscience) to which 10 μg/mL insulin (Sigma) was added at 37° C. and 5% CO2.
In 24 hours after dispensing said cells into a 96-well plate, each of the compounds of the examples or a vehicle solvent (final 1% DMSO) was treated by being diluted with a serum-free culture medium so that the final concentration became 0.2 μM. In 24 hours after said treatment, a luciferase assay working solution (ONE-Step Luciferase assay reagent; BPS bioscience) containing a luciferase substrate was treated in each well at 100 μL, and then left in a shaker for 15 minutes to be well mixed. Then, a degree of luminescence generated by luciferase expressed according to TEAD activation was measured by a microplate reader (TECAN). A relative activity of luciferase […], and the results are shown in table 8 below.

[2] = target: T1, recombinant GST-TEAD1 proteins (209 to 426 a.a.) (Homo sapiens, UniProt P28347); assay: Evaluation of palmitoylation of TEAD protein; assay type: biochemical; conditions: 5 μM compound, 15 minutes preincubation, 3 μM alkyne palmitoyl-CoA 30 minutes, pH 6.4, vs DMSO control
T1 construct: recombinant GST-TEAD1 proteins (209 to 426 a.a.)
Experimental: Each compound corresponding to a concentration of 5 μM was added to recombinant GST-TEAD1 proteins (209 to 426 a.a.) and cultured for 15 minutes. For an autopalmitoylation reaction of proteins after culturing, 3 μM alkyne palmitoyl-CoA (Cayman chemical) and 50 mM MES buffer (pH 6.4) were added and cultured for 30 minutes, after which 1% of sodium dodecyl sulfate (SDS) was added to stop the reaction. After that, biotinylation was performed through a CLICK (Click chemistry tools) reaction, and then a protein solution was concentrated to prepare a sample.
Analysis of the sample was performed using SDS-PAGE and streptavidin HRP (Thermo scientific). The resulting values were quantified using an Image J (NIH). For the intensity of the band obtained from Streptavidin blot, a palmitoylation inhibitory activity was analyzed based on the control group (DMSO). The normalization of each sample was performed using an anti-GST (91G1) (cell signaling) antibody.

T1 sequence (P28347 209-426): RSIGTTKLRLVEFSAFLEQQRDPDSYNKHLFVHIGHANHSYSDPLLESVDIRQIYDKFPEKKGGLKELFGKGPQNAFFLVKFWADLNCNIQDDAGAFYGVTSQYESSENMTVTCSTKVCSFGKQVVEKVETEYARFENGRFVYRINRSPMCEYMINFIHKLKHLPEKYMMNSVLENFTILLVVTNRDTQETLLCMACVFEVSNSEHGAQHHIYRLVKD

inhibition at 5 µM [2]	Compound	inhibition at 0.2 µM [1]
> 80%	C=CC(=O)Nc1cnc2c(c1)c(C)cn2-c1ccc(C2CCCCC2)cc1 [Compound 37, N-(1-(4-cyclohexylphenyl)-3-methyl-1H-pyrrolo[2,3-b]pyridin-5-yl)acrylamide]	< 30%
40 to 80%	C=CC(=O)Nc1cnc2c(c1)c(C)cn2Cc1ccc(C(C)(C)C)cc1 [Compound 44, N-(1-(4-(tert-butyl)benzyl)-3-methyl-1H-pyrrolo[2,3-b]pyridin-5-yl)acrylamide]	< 30%
40 to 80%	C=CC(=O)Nc1cnc2c(c1)c(C)cn2Cc1ccc(OC(F)(F)F)cc1 [Compound 45, N-(3-methyl-1-(4-(trifluoromethoxy)benzyl)-1H-pyrrolo[2,3-b]pyridin-5-yl)acrylamide]	> 50%
> 80%	C=CC(=O)Nc1cnc2c(c1)c(C)cn2-c1ccc(C(C)C)cc1 [Compound 47, N-(1-(4-isopropylphenyl)-3-methyl-1H-pyrrolo[2,3-b]pyridin-5-yl)acrylamide]	30 to 50%
> 80%	C=CC(=O)Nc1cnc2c(c1)c(C)nn2-c1ccc(C(C)C)cc1 [Compound 51, N-(1-(4-isopropylphenyl)-3-methyl-1H-pyrazolo[3,4-b]pyridin-5-yl)acrylamide]	< 30%
40 to 80%	C=CC(=O)Nc1cnc2c(c1)c(C)cn2Cc1cccc(C(F)(F)F)c1 [Compound 55, N-(3-methyl-1-(3-(trifluoromethyl)benzyl)-1H-pyrrolo[2,3-b]pyridin-5-yl)acrylamide]	> 50%

Continued, molecule first:

Compound	inhibition at 5 µM [2]	inhibition at 0.2 µM [1]
C=CC(=O)Nc1cnc2c(ccn2-c2ccc(C(F)(F)F)cc2)c1 [Compound 36, N-(1-(4-(trifluoromethyl)phenyl)-1H-pyrrolo[2,3-b]pyridin-5-yl)acrylamide]	> 80%	> 50%
C=CC(=O)Nc1ccc2c(Br)nn(Cc3ccc(C(F)(F)F)cc3)c2c1 [Compound 38, N-(3-bromo-1-(4-(trifluoromethyl)benzyl)-1H-indazol-6-yl)acrylamide]	> 80%	30 to 50%
C=CC(=O)Nc1ccc2c(c1)CCN2c1ccc(C(F)(F)F)cc1 [Compound 39, N-(1-(4-(trifluoromethyl)phenyl)indolin-5-yl)acrylamide]	40 to 80%	30 to 50%
C=CC(=O)Nc1cnc2c(n1)c(C)cn2-c1ccc(C(F)(F)F)cc1 [Compound 41, N-(7-methyl-5-(4-(trifluoromethyl)phenyl)-5H-pyrrolo[2,3-b]pyrazin-2-yl)acrylamide]	40 to 80%	> 50%
C=CC(=O)Nc1cnc2c(ccn2-c2ccc(C(F)(F)F)cc2)n1 [Compound 46, N-(5-(4-(trifluoromethyl)phenyl)-5H-pyrrolo[2,3-b]pyrazin-2-yl)acrylamide]	40 to 80%	< 30%
C=CC(=O)Nc1cnc2c(c1)c(C)nn2CCC(C)C [Compound 48, N-(1-isopentyl-3-methyl-1H-pyrazolo[3,4-b]pyridin-5-yl)acrylamide]	40 to 80%	> 50%
C=CC(=O)Nc1cnc2c(c1)c(C)nn2Cc1ccc(OC(F)(F)F)cc1 [Compound 49, N-(3-methyl-1-(4-(trifluoromethoxy)benzyl)-1H-pyrazolo[3,4-b]pyridin-5-yl)acrylamide]	40 to 80%	< 30%
C=CC(=O)Nc1cnc2c(c1)c(C)nn2-c1cccc(C(F)(F)F)c1 [Compound 52, N-(3-methyl-1-(3-(trifluoromethyl)phenyl)-1H-pyrazolo[3,4-b]pyridin-5-yl)acrylamide]	40 to 80%	> 50%
C=CC(=O)Nc1cnc2c(c1)c(C)cn2Cc1ccc(C(F)(F)F)c(OC)c1 [Compound 53, N-(1-(3-methoxy-4-(trifluoromethyl)benzyl)-3-methyl-1H-pyrrolo[2,3-b]pyridin-5-yl)acrylamide]	< 40%	> 50%
